Test system: CD30-overexpressing cell line Karpas 299
Test: Cell based antiproliferation (resazurin) assay, Karpas 299
Settings: Karpas 299, 96 hours of treatment, Brentuximab-NA3 DAR=3.15

In the case of Brentuximab: CD30-addressing antibody, the “growth inhibition (cell viability)” value is reported as “does not show growth inhibition”.

— patent publication US12453779B2, “Chemoselective thiol-conjugation with alkene or alkyne-phosphonothiolates and -phosphonates” (FORSCHUNGSVERBUND BERLIN E.V., priority 2018, dated 2025)
